Experimental data as given in the supplement of paper PMC8612539.
Converted amounts (≈) assume the structure as drawn.

Assays:
Mannheimia haemolytica = assay: minimum inhibitory concentration (MIC)
Experimental: (§1)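 Broth microdilution MIC (Sensititre BOPO7F bovine plate, CLSI methods) of 19 antimicrobials against field isolates of P. multocida, M. haemolytica, H. somni (deep nasopharyngeal swabs) and E. coli, Enterococcus spp. (rectal swabs) from weaned dairy heifers. Incubation 16-24 h at 35 C. MIC is the lowest concentration preventing visible growth. Values with <= or > lie at the tested range limits. Trimethoprim-sulfamethoxazole is given as the trimethoprim component of a 1:19 mixture.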

Enterococcus spp. = assay: minimum inhibitory concentration (MIC)
Experimental: as §1

CN(C)[C@@H]1C(O)=C(C(N)=O)C(=O)[C@@]2(O)C(O)=C3C(=O)c4c(O)cccc4[C@@](C)(O)[C@H]3C[C@@H]12 [Tetracycline]
minimum inhibitory concentration [µg/mL]
Conditions	Enterococcus spp.	Mannheimia haemolytica
isolate (source animal id): 2	1 (≈ 2.25 µM)	–
isolate (source animal id): 8	–	> 8
isolate (source animal id): 13	–	> 8
isolate (source animal id): 18	–	> 8
isolate (source animal id): 21	–	> 8
isolate (source animal id): 25	–	4 (≈ 9 µM)
isolate (source animal id): 27	–	8 (≈ 18 µM)
isolate (source animal id): 28	–	8 (≈ 18 µM)
isolate (source animal id): 30	–	> 8
isolate (source animal id): 31	–	> 8
isolate (source animal id): 32	–	> 8
isolate (source animal id): 34	–	8 (≈ 18 µM)
isolate (source animal id): 35	> 8	–
isolate (source animal id): 36	–	8 (≈ 18 µM)
isolate (source animal id): 37	–	8 (≈ 18 µM)
isolate (source animal id): 40	–	> 8
isolate (source animal id): 41	–	8 (≈ 18 µM)
isolate (source animal id): 42	> 8	–
isolate (source animal id): 43	–	> 8
isolate (source animal id): 44	> 8	–
isolate (source animal id): 46	–	8 (≈ 18 µM)
isolate (source animal id): 49	–	4 (≈ 9 µM)
isolate (source animal id): 50	–	8 (≈ 18 µM)
isolate (source animal id): 51	–	8 (≈ 18 µM)
isolate (source animal id): 52	–	> 8
isolate (source animal id): 53	–	> 8
isolate (source animal id): 55	–	> 8
isolate (source animal id): 56	–	> 8
isolate (source animal id): 57	–	> 8
isolate (source animal id): 79	> 8	–
isolate (source animal id): 88	1 (≈ 2.25 µM)	–
isolate (source animal id): 91	2 (≈ 4.5 µM)	–
isolate (source animal id): 92	≤ 0.5	–
isolate (source animal id): 100	–	> 8
isolate (source animal id): 103	–	4 (≈ 9 µM)
isolate (source animal id): 107	–	4 (≈ 9 µM)
isolate (source animal id): 108	–	> 8
isolate (source animal id): 111	1 (≈ 2.25 µM)	–
isolate (source animal id): 112	–	> 8
isolate (source animal id): 113	–	> 8
isolate (source animal id): 121	–	8 (≈ 18 µM)
isolate (source animal id): 122	> 8	4 (≈ 9 µM)
isolate (source animal id): 123	> 8	> 8
isolate (source animal id): 126	–	4 (≈ 9 µM)
isolate (source animal id): 133	> 8	> 8
isolate (source animal id): 135	–	> 8
isolate (source animal id): 138	–	4 (≈ 9 µM)
isolate (source animal id): 141	–	> 8
isolate (source animal id): 142	–	> 8
isolate (source animal id): 145	–	4 (≈ 9 µM)
isolate (source animal id): 149	–	≤ 0.5
isolate (source animal id): 151	–	≤ 0.5
isolate (source animal id): 152	–	4 (≈ 9 µM)
isolate (source animal id): 154	–	≤ 0.5
isolate (source animal id): 158	> 8	–
isolate (source animal id): 159	–	4 (≈ 9 µM)
isolate (source animal id): 162	–	4 (≈ 9 µM)
isolate (source animal id): 168	> 8	–
isolate (source animal id): 169	> 8	–
isolate (source animal id): 170	–	8 (≈ 18 µM)
isolate (source animal id): 171	≤ 0.5	≤ 0.5
isolate (source animal id): 172	–	8 (≈ 18 µM)
isolate (source animal id): 173	–	8 (≈ 18 µM)
isolate (source animal id): 175	> 8	–
isolate (source animal id): 177	> 8	–
isolate (source animal id): 179	–	4 (≈ 9 µM)
isolate (source animal id): 180	–	4 (≈ 9 µM)
isolate (source animal id): 181	> 8	–
isolate (source animal id): 182	> 8	–
isolate (source animal id): 183	> 8	4 (≈ 9 µM)
isolate (source animal id): 186	–	4 (≈ 9 µM)
isolate (source animal id): 187	> 8	4 (≈ 9 µM)
isolate (source animal id): 188	–	4 (≈ 9 µM)
isolate (source animal id): 190	> 8	≤ 0.5
isolate (source animal id): 191	–	8 (≈ 18 µM)
isolate (source animal id): 192	–	≤ 0.5
isolate (source animal id): 194	≤ 0.5	–
isolate (source animal id): 195	> 8	–
isolate (source animal id): 197	> 8	–
isolate (source animal id): 201	–	8 (≈ 18 µM)
isolate (source animal id): 202	–	4 (≈ 9 µM)
isolate (source animal id): 209	–	8 (≈ 18 µM)
isolate (source animal id): 211	> 8	≤ 0.5
isolate (source animal id): 214	> 8	–
isolate (source animal id): 220	–	8 (≈ 18 µM)
isolate (source animal id): 221	–	4 (≈ 9 µM)
isolate (source animal id): 222	> 8	–
isolate (source animal id): 223	≤ 0.5	4 (≈ 9 µM)
isolate (source animal id): 228	> 8	–
isolate (source animal id): 230	> 8	–
isolate (source animal id): 233	–	4 (≈ 9 µM)
isolate (source animal id): 235	> 8	–
isolate (source animal id): 236	≤ 0.5	–
isolate (source animal id): 237	–	≤ 0.5
isolate (source animal id): 239	≤ 0.5	–
isolate (source animal id): 241	> 8	8 (≈ 18 µM)
isolate (source animal id): 244	≤ 0.5	–
isolate (source animal id): 246	> 8	–
isolate (source animal id): 247	> 8	–
isolate (source animal id): 250	> 8	–
isolate (source animal id): 252	> 8	4 (≈ 9 µM)
isolate (source animal id): 253	–	> 8
isolate (source animal id): 259	–	8 (≈ 18 µM)
isolate (source animal id): 260	–	> 8
isolate (source animal id): 262	–	4 (≈ 9 µM)
isolate (source animal id): 268	1 (≈ 2.25 µM)	–
isolate (source animal id): 282	≤ 0.5	4 (≈ 9 µM)
isolate (source animal id): 285	≤ 0.5	–
isolate (source animal id): 287	–	8 (≈ 18 µM)
isolate (source animal id): 288	–	≤ 0.5
isolate (source animal id): 289	≤ 0.5	–
isolate (source animal id): 290	≤ 0.5	–
isolate (source animal id): 291	–	≤ 0.5
isolate (source animal id): 293	–	4 (≈ 9 µM)
isolate (source animal id): 296	≤ 0.5	–
isolate (source animal id): 298	> 8	> 8
isolate (source animal id): 299	–	> 8
isolate (source animal id): 300	–	≤ 0.5
isolate (source animal id): 301	≤ 0.5	–
isolate (source animal id): 302	–	> 8
isolate (source animal id): 304	–	> 8
isolate (source animal id): 306	–	≤ 0.5
isolate (source animal id): 308	–	≤ 0.5
isolate (source animal id): 309	–	≤ 0.5
isolate (source animal id): 310	> 8	–
isolate (source animal id): 313	–	4 (≈ 9 µM)
isolate (source animal id): 318	–	4 (≈ 9 µM)
isolate (source animal id): 320	> 8	≤ 0.5
isolate (source animal id): 321	–	4 (≈ 9 µM)
isolate (source animal id): 323	–	> 8
isolate (source animal id): 324	–	8 (≈ 18 µM)
isolate (source animal id): 326	–	4 (≈ 9 µM)
isolate (source animal id): 328	–	8 (≈ 18 µM)
isolate (source animal id): 329	–	4 (≈ 9 µM)
isolate (source animal id): 331	≤ 0.5	–
isolate (source animal id): 333	≤ 0.5	4 (≈ 9 µM)
isolate (source animal id): 335	–	4 (≈ 9 µM)
isolate (source animal id): 338	–	4 (≈ 9 µM)
isolate (source animal id): 341	> 8	–
